Reference: publication PMC8245654, “Extended JAZ degron sequence for plant hormone binding in jasmonate co-receptor of tomato SlCOI1-SlJAZ” (Scientific Reports, 2021)
Like-named read-outs stand apart in the source and are kept apart here.

Assays:
SlCOI1-SlJAZ1 = biological target: T1, SlCOI1-SlJAZ1 (Solanum lycopersicum, UniProt A0A3Q7H988+Q6TDU2); experiment: AlphaScreen assay, GST-SlCOI1 and Fl-SlJAZP1; format: binding; settings: calculated from AlphaScreen, 5 nM SlCOI1, 10 nM Fl-SlJAZP1
T1 sequence (Q6TDU2 1-603): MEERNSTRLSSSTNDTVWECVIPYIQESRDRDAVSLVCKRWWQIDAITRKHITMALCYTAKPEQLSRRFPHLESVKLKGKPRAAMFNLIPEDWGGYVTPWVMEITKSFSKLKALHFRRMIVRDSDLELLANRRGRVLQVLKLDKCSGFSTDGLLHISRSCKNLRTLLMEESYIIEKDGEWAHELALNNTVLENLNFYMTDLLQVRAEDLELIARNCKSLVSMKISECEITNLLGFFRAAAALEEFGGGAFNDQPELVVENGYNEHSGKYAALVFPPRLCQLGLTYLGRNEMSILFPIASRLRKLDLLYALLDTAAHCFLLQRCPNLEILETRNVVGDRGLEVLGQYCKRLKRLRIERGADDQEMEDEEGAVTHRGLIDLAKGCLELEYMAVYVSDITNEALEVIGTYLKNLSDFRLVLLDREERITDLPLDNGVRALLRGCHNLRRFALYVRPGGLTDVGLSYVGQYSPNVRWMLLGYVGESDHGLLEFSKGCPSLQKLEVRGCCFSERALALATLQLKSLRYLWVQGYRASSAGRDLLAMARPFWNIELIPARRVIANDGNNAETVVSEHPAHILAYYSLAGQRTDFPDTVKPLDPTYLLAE
T1 sequence (A0A3Q7H988 159-185): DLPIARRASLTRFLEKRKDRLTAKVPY
T1 sequence (Q39255 1-160 partner): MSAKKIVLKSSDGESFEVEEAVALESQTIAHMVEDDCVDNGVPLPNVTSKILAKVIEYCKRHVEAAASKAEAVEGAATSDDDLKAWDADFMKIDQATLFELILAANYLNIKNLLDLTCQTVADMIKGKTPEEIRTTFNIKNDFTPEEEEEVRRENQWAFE
Description: (§1) AlphaScreen experiments were performed at 25 °C in the incubation buffer. 15 μL of the reaction mixture containing the incubation buffer, 5 nM SlCOI1, 10 nM Fl-SlJAZPs and various concentrations of COR or JA-Ile was added to a 1/2 Area AlphaPlate-96 (PerkinElmer), and then incubated for 1 h at 4 °C. Then, 10 μL of a detection mixture containing incubation buffer, 0.1 μL of FITC-coated donor beads, 0.1 μL of GST-coated acceptor beads was added to each well. Finally, the mixture was incubated for 12 h and the luminescence signals were detected using the Envision 2105 Multimode Plate Reader (PerkinElmer). The experiment was repeated three times, and the data are presented as average values with standard deviation. To clarify the difference in the affinity of the ligands with each COI1/JAZ co-receptor, the results of the AlphaScreen assay are shown with the normalized signal intensity change (Figs. 3, 4, and Supplementary Fig. S9) along with the raw signal intensity (Supplementary Figs. S8, S10, and S13)[40].

SlCOI1-SlJAZ5 = biological target: T2, SlCOI1-SlJAZ5 (Solanum lycopersicum, UniProt A0A3Q7FUH8+Q6TDU2); experiment: AlphaScreen assay, GST-SlCOI1 and Fl-SlJAZP5; format: binding; settings: calculated from AlphaScreen, 5 nM SlCOI1, 10 nM Fl-SlJAZP5
T2 sequence (Q6TDU2 1-603): T1 sequence (Q6TDU2 1-603)
T2 sequence (A0A3Q7FUH8 327-353): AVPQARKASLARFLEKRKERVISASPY
T2 sequence (Q39255 1-160 partner): T1 sequence (Q39255 1-160 partner)
Description: as §1

SlCOI1-SlJAZ6 = experiment: AlphaScreen assay, GST-SlCOI1 and Fl-SlJAZP6; format: binding, Solanum lycopersicum; settings: calculated from AlphaScreen; 5 nM SlCOI1, 10 nM Fl-SlJAZP6
Description: as §1

SlCOI1-SlJAZ7 = biological target: T3, SlCOI1-SlJAZ7 (Solanum lycopersicum, UniProt Q6TDU2+Q9M723); experiment: AlphaScreen assay, GST-SlCOI1 and Fl-SlJAZP7; format: binding
T3 sequence (Q6TDU2 1-603): T1 sequence (Q6TDU2 1-603)
T3 sequence (Q9M723 174-200): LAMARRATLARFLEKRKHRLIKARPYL
T3 sequence (Q39255 1-160 partner): T1 sequence (Q39255 1-160 partner)
Description: as §1

SlCOI1-SlJAZ8 = experiment: AlphaScreen assay, GST-SlCOI1 and Fl-SlJAZP8; format: binding, Solanum lycopersicum; settings: calculated from AlphaScreen; 5 nM SlCOI1, 10 nM Fl-SlJAZP8
Description: as §1

SlCOI1-SlJAZ9 = experiment: AlphaScreen assay, GST-SlCOI1 and Fl-SlJAZP9; format: binding, Solanum lycopersicum; settings: calculated from AlphaScreen; 5 nM SlCOI1, 10 nM Fl-SlJAZP9
Description: as §1

SlCOI1-SlJAZ10 = experiment: AlphaScreen assay, GST-SlCOI1 and Fl-SlJAZP10; format: binding, Solanum lycopersicum; settings: calculated from AlphaScreen; 5 nM SlCOI1, 10 nM Fl-SlJAZP10
Description: as §1

SlCOI1-SlJAZ11 = experiment: AlphaScreen assay, GST-SlCOI1 and Fl-SlJAZP11; format: binding, Solanum lycopersicum; settings: calculated from AlphaScreen; 5 nM SlCOI1, 10 nM Fl-SlJAZP11
Description: as §1

SlCOI1-SlJAZ13 = biological target: T4, SlCOI1-SlJAZ13 (Solanum lycopersicum, UniProt A0A3Q7EQ67+Q6TDU2); experiment: AlphaScreen assay, GST-SlCOI1 and Fl-SlJAZP13; format: binding; settings: calculated from AlphaScreen, 5 nM SlCOI1, 10 nM Fl-SlJAZP13
T4 sequence (Q6TDU2 1-603): T1 sequence (Q6TDU2 1-603)
T4 sequence (A0A3Q7EQ67 85-111): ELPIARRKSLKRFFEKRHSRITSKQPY
T4 sequence (Q39255 1-160 partner): T1 sequence (Q39255 1-160 partner)
Description: as §1

[1] = system: GST-SlCOI1 with FLAG-SlJAZ1-3/5–8; experiment: Pull down assay of GST-SlCOI1 with FLAG-SlJAZ (full-length proteins); format: binding, Solanum lycopersicum; settings: ligand 100 nM; full-length FLAG-SlJAZ1-3/5–8; immunoblotting
Description: (§2) SlJAZ genes were cloned from the tomato cultivar Micro-Tom and their FLAG-tag-fused proteins FLAG-SlJAZ1-11/13 expressed using the wheat germ-derived cell-free protein expression system (Supplementary Fig. S1). GST-fused SlCOI1 (GST-SlCOI1) was also expressed in Sf9 cultured insect cells (Supplementary Fig. S2). Arabidopsis ASK protein was co-expressed to improve the stability of SlCOI1[26].
(§3) Figure 2 (a) Pull down assay of GST-SlCOI1 with FLAG-SlJAZ (full-length proteins) in the presence of JA-Ile (100 nM). GST-SlCOI1 bound to FLAG-SlJAZ proteins was pulled down with anti-FLAG antibody and Protein G magnetic beads, and analyzed by immunoblotting (top: anti-GST-HRP conjugate for detection of GST-SlCOI1, bottom: anti-FLAG antibody and anti mouse-IgG HRP conjugate for detection of FLAG-SlJAZs). *or **show the bands derived from heavy chain or light chain of the anti-FLAG antibody. (b) Pull down assay of GST-SlCOI1 with Fl-SlJAZPs in the presence of JA-Ile (100 nM). GST-SlCOI1 bound to Fl-SlJAZPs was pulled down with anti-fluorescein antibody and Protein G magnetic beads, and analyzed by immunoblotting (anti-GST-HRP conjugate for detection of GST-SlCOI1).
(§4) All chemicals (JA-Ile or COR) were dissolved in ethanol to generate 10 mM stock solutions and diluted with 20% ethanol aq. for preparation of 100 μM stock solutions. For the pull-down experiments using full-length SlJAZ proteins, purified GST-COI1 (5 nM), FLAG-tagged SlJAZ (each 20 µL of the translation mixture), and the ligands (COR or JA-Ile) in 350 µL of incubation buffer (50 mM Tris–HCl buffer, pH 7.8, 100 mM NaCl, 20 mM 2-mercaptoethanol, 10% glycerol, 0.1% Tween20, 100 nM inositol-1,2,4,5,6-pentakisphosphate (IP5)) were combined with anti-FLAG antibody (0.2 µL, Sigma Aldrich, F1804, clone M2), and incubated for 10–15 h at 4 °C with rotation. After incubation, the samples were combined with SureBeads Protein G (10 µL in 50% incubation buffer slurry, Bio-Rad). After 3 h incubation at 4 °C with rotation, the samples were washed three times with 350 µL of fresh incubation buffer. The washed beads were resuspended in 35 µL of SDS-PAGE loading buffer containing dithiothreitol (DTT, 100 mM). After heating for 10 min at 60 °C, the samples were subjected to SDS-PAGE and analyzed by western blotting. The bound GST-COI1 protein was detected using anti-GST HRP conjugate (RPN1236, GE Healthcare, 5000-fold dilution in blocking buffer (Nakalai tesque, Inc., Japan). FLAG-JAZ proteins were detected using anti-FLAG antibody (1000-fold dilution in blocking buffer) and anti-mouse IgG-HRP antibody (Southern Biotech. Inc., Birmingham, US, 1031-05, 20,000-fold dilution in blocking buffer). Three independent replicates using proteins purified at different times were done with similar results (Supplementary Fig. S3).

[2] = system: GST-SlCOI1 with FLAG-SlJAZ4/13; experiment: as above; format: binding, Solanum lycopersicum; settings: ligand 100 nM; full-length FLAG-SlJAZ4/13; immunoblotting
Description: as §2, §3, §4

[3] = system: GST-SlCOI1 with FLAG-SlJAZ9-11; experiment: as above; format: binding, Solanum lycopersicum; settings: ligand 100 nM; full-length FLAG-SlJAZ9-11; immunoblotting
Description: as §2, §3, §4

[4] = biological target: GST-SlCOI1 and SlJAZP1-4DOD; experiment: AlphaScreen assay, GST-SlCOI1 and swapped SlJAZP1-4DOD; format: binding, Solanum lycopersicum; settings: swapped peptide: DOD sequence of SlJAZP1 swapped with that of SlJAZP4
Description: To examine the effect of the DOD sequence, we studied SlJAZP1-4/13 which incorporate the same JAZ degron sequence LPIARR and alternative DOD sequence XSLX. […] We prepared SlJAZP1-3DOD and SlJAZP1-4DOD, wherein the DOD sequence of SlJAZP1 was swapped with those of SlJAZP3 and SlJAZP4, respectively (Fig. 4a, and Supplementary Figs. S11–12). […] Next, we examined whether the DOD sequence also affected the affinity of SlJAZP5/6/8 with another JAZ degron sequence VPQARK. […] We prepared DOD swapped peptides SlJAZP5-2DOD (ASLA of SlJAZ5 to NSLT of SlJAZ2) and SlJAZP2-5DOD (NSLT of SlJAZ2 to ASLA of SlJAZ5) (Fig. 4a, and Supplementary Figs. S11–12).
as §1, with “To clarify the difference in the affinity of the ligands with each COI1/JAZ co-receptor, the results of the AlphaScreen assay are shown with the normalized signal intensity change (Figs. 3, 4, and Supplementary Fig. S9) along with the raw signal intensity (Supplementary Figs. S8, S10, and S13)[40].” left out

Structure (SMILES) | Kd (SlCOI1-SlJAZ1) [nM] | Kd (SlCOI1-SlJAZ5) [nM] | Kd (SlCOI1-SlJAZ6) [nM] | Kd (SlCOI1-SlJAZ7) [nM] | Kd (SlCOI1-SlJAZ8) [nM] | Kd (SlCOI1-SlJAZ9) [nM] | Kd (SlCOI1-SlJAZ10) [nM] | Kd (SlCOI1-SlJAZ11) [nM] | Kd (SlCOI1-SlJAZ13) [nM] | pull-down of GST-SlCOI1 [1] | pull-down of GST-SlCOI1 [2] | pull-down of GST-SlCOI1 [3] | Kd (SlCOI1-SlJAZ1; read-out: Kd) [nM] | Kd (SlCOI1-SlJAZ5; read-out: Kd) [nM] | Kd (SlCOI1-SlJAZ7; calculated from AlphaScreen, 5 nM SlCOI1, 10 nM Fl-SlJAZP7, read-out: Kd) [nM] | Kd (SlCOI1-SlJAZ13; read-out: Kd) [nM] | Kd [4] [nM]
CC[C@H]1C=C(C(=O)N[C@@]2(C(=O)O)C[C@@H]2CC)[C@H]2CCC(=O)[C@H]2C1 [COR, coronatine] | 4.9 | 0.64 | 0.76 | 0.23 | 0.39 | 44.7 | 89.7 | 62.4 | 80.7 | Identical results | Identical results | Identical results | – | – | – | – | –
CC/C=C\C[C@@H]1C(=O)CC[C@@H]1CC(=O)N[C@H](C(=O)O)[C@@H](C)CC [JA-Ile, (+)-7-iso-Jasmonoyl-L-isoleucine] | – | – | 4.1 | – | 2.2 | 1110 | 402 | 430 | – | pulled-down GST-SlCOI1 | could not pull-down the GST-SlCOI1 | not FLAG-SlJAZ9-11 pulled-down GST-SlCOI1 | 9.2 | 4.2 | 16.2 | 637 | 46.9
